Results from ChEMBL document CHEMBL3044965, “Design, synthesis, and antimalarial evaluation of thiazole-derived amino acids” (Med Chem Res, 2008).
Activity calls are given as the source filed them. The calls are words filed in the database; no cut-off is given here.

Legend:
Plasmodium falciparum [1] = assay: Antiplasmodial activity against chloroquine-resistant Plasmodium falciparum assessed as inhibition of [3H]hypoxanthine incorporation incubated for 20 to 24 hr prior to [3H]hypoxanthine addition measured after 24 grs by microbeta scintillation counting; type: functional, organism-based
Plasmodium falciparum [2] = assay: Antiplasmodial activity against chloroquine-sensitive Plasmodium falciparum assessed as inhibition of [3H]hypoxanthine incorporation incubated for 20 to 24 hr prior to [3H]hypoxanthine addition measured after 24 grs by microbeta scintillation counting; type: functional, organism-based
Plasmodium falciparum [3] = assay: Antiplasmodial activity against chloroquine-sensitive Plasmodium falciparum by schizont maturation assay; type: functional, organism-based
Plasmodium falciparum [4] = assay: Antiplasmodial activity against chloroquine-resistant Plasmodium falciparum by schizont maturation assay; type: functional, organism-based
[5] = Cytotoxicity against Homo sapiens (human) RBC assessed as cell lysis; type: cell-based; conditions: erythrocyte

SMILES | IC50 (Plasmodium falciparum [1]) | IC90 (Plasmodium falciparum [1]) | IC50 (Plasmodium falciparum [2]) | IC90 (Plasmodium falciparum [2]) | Activity (Plasmodium falciparum [3]) | Activity (Plasmodium falciparum [4]) | Activity [5] | IC99 (Plasmodium falciparum [2])
CSCC[C@H](NC(=O)OC(C)(C)C)C(=O)Nc1nccs1 | 18.2 µM | 31.4 µM | 10.2 µM | 29.1 µM | – | – | – | –
N[C@H](Cc1ccccc1)C(=O)Nc1nccs1 | 17.4 µM | 45.7 µM | 16.1 µM | 33.5 µM | – | – | – | –
CCN(CC)CCCC(C)Nc1ccnc2cc(Cl)ccc12 (stereo not drawn) [CHLOROQUINE] | – | 0.25 µM | – | 0.05 µM | – | – | – | –
CC(C)(C)OC(=O)N[C@@H](Cc1c[nH]c2ccccc12)C(=O)Nc1nccs1 | 4.87 µM | 9.12 µM | 3.45 µM | 7.89 µM | Active | Active | Non-toxic | 18.1 µM
CC[C@H](C)[C@H](NC(=O)OC(C)(C)C)C(=O)Nc1nccs1 | 7.84 µM | 11.1 µM | 6.32 µM | 9.74 µM | – | – | – | –
CC(C)[C@H](NC(=O)OC(C)(C)C)C(=O)Nc1nccs1 | 10.9 µM | 18.6 µM | 9.32 µM | 12.5 µM | – | – | – | –
CC(C)(C)OC(=O)NCC(=O)Nc1nccs1 | 17.5 µM | 22.4 µM | 14.3 µM | 21.3 µM | – | – | – | –
CC(C)C[C@H](NC(=O)OC(C)(C)C)C(=O)Nc1nccs1 | 8.96 µM | 18.3 µM | 6.31 µM | 14.5 µM | – | – | – | –
CC1CCCN1[C@H](NC(=O)OC(C)(C)C)C(=O)Nc1nccs1 (stereo partly drawn) | 6.12 µM | 12.7 µM | 4.89 µM | 11.1 µM | Active | Active | Non-toxic | 14.9 µM
N[C@H](Cc1c[nH]c2ccccc12)C(=O)Nc1nccs1 | 19.5 µM | 17.1 µM | 11.1 µM | 16.1 µM | – | – | – | –
CC(C)(C)OC(=O)N[C@@H](CSCc1ccccc1)C(=O)Nc1nccs1 | 10.8 µM | 15.5 µM | 9.11 µM | 12.6 µM | – | – | – | –
C[C@H](NC(=O)OC(C)(C)C)C(=O)Nc1nccs1 | 18.7 µM | 27.2 µM | 12.1 µM | 24.5 µM | – | – | – | –
CC(C)(C)OC(=O)N[C@@H](Cc1ccccc1)C(=O)Nc1nccs1 | 7.41 µM | 18.6 µM | 5.62 µM | 16.3 µM | – | – | – | –
